Data from the NIST ThermoML archive (doi:10.1016/j.tca.2006.01.020).

Experiment: molar heat capacity at constant pressure
Details: 101.33 kPa, Crystal, Small (less than 1 g) adiabatic calorimetry

[Ba+2].[Ce+4].[O-2].[O-2].[O-2] [barium cerium(IV) oxide]
Details | molar heat capacity at constant pressure [J/K/mol]
1.721 K | 0.00113
1.726 K | 0.00106
1.733 K | 0.00113
1.761 K | 0.00102
1.781 K | 0.00108
1.833 K | 0.00116
1.87 K | 0.00103
1.904 K | 0.00103
1.995 K | 0.00167
2.042 K | 0.00152
2.096 K | 0.00138
2.134 K | 0.00153
2.178 K | 0.0019
2.817 K | 0.00505
2.844 K | 0.00578
2.877 K | 0.0056
3.154 K | 0.00691
3.175 K | 0.00697
3.25 K | 0.00798
3.258 K | 0.00871
3.318 K | 0.00829
3.349 K | 0.00913
3.382 K | 0.00944
3.471 K | 0.0093
3.57 K | 0.01
3.673 K | 0.0107
3.834 K | 0.0118
3.983 K | 0.0132
4.14 K | 0.0143
4.241 K | 0.0157
4.384 K | 0.0171
4.454 K | 0.0187
4.608 K | 0.0193
4.68 K | 0.0211
4.756 K | 0.0223
4.835 K | 0.0232
4.911 K | 0.0245
4.992 K | 0.026
5.071 K | 0.0274
5.152 K | 0.0284
5.227 K | 0.0294
5.296 K | 0.0316
5.375 K | 0.0321
5.441 K | 0.0353
5.536 K | 0.0361
5.614 K | 0.0388
5.697 K | 0.0405
5.78 K | 0.0425
5.861 K | 0.0448
5.946 K | 0.0466
6.034 K | 0.0491
6.119 K | 0.0516
6.209 K | 0.0536
6.297 K | 0.0571
6.366 K | 0.057
6.457 K | 0.0616
6.548 K | 0.0639
6.647 K | 0.0675
6.739 K | 0.0705
6.841 K | 0.0743
6.93 K | 0.0778
7.04 K | 0.0831
7.13 K | 0.0857
7.24 K | 0.0907
7.34 K | 0.0935
7.45 K | 0.0993
7.55 K | 0.103
7.66 K | 0.11
7.76 K | 0.115
7.89 K | 0.123
8 K | 0.129
8.13 K | 0.138
8.25 K | 0.145
8.38 K | 0.156
8.5 K | 0.164
8.64 K | 0.176
8.77 K | 0.185
8.91 K | 0.201
9.04 K | 0.209
9.17 K | 0.221
9.32 K | 0.241
9.46 K | 0.251
9.59 K | 0.266
9.75 K | 0.289
9.92 K | 0.309
10 K | 0.318
10.08 K | 0.328
10.23 K | 0.348
10.4 K | 0.377
10.58 K | 0.4
10.76 K | 0.433
10.94 K | 0.461
11.1 K | 0.489
11.3 K | 0.534
11.48 K | 0.561
11.68 K | 0.61
